Results as given in patent publication US4473581A (priority 1979, dated 1984).
Counter-ions that a name gives are not always drawn.

How the values were obtained:
[1] = system: vesicular stomatitis virus (VSV) in L-1D cells; format: cell-based
rats = test: Chronic toxicity test in rats, oral, six months; details: six months, 30, 300 or 3000 mg/kg per day
dogs = test: Chronic toxicity in dogs, intravenous, six months; details: 500 mg/kg per day
[2] = Acute toxicity (LD50) in rats; details: rat, in vivo
[3] = Acute toxicity (LD50) in mice; details: mouse, in vivo
[4] = system: Ehrlich ascites tumor cells; test: Anti-tumor activity of peritoneal exudate cells from Ge treated mice on Ehrlich ascites tumor bearing mice; format: in vivo, DDI mice; details: peritoneal exudate cells from mice given 300 mg/kg Ge, six days i.p. (FIG. 3)
Experimental: An anti-tumor activity test of peritoneal exudate cells obtained from mice treated with Ge in a dosage amount of 300 mg/kg was conducted on Ehrlich ascites tumor bearing mice.
1×10^5 cells/mouse of Ehrlich ascites tumor cells were transplanted into the peritoneal cavity of DDI mice. Twenty-four hours later, these mice were intraperitoneally supplied with 5×10^3 peritoneal exudate cells obtained from mice treated with Ge once daily for six consecutive days. Peritoneal exudate cells obtained from saline injected mice were likewise supplied to tumor bearing mice as a control.

[5] = system: vesicular stomatitis virus (VSV) in L-1D cells; format: cell-based; remark: listed apart in the source
FM-3A cells = test: Growth inhibition of FM-3A tumor cells co-cultured with macrophages from Ge treated mice; format: cell-based; details: 48 hours
Experimental: It is known that interferon has the ability to convert a standing macrophage into a tumoricidal macrophage, deemed activated macrophage (A-M.phi.), either in vivo or in vitro. Since the Ge induced the formation of immune interferon in vivo, it was expected that A-M: would be induced in the Ge treated animal.
Peritoneal exudate cells obtained from mice 72 hours after treatment with a 300 mg/kg dose of Ge were cultured for 20 minutes in a petri dish utilizing RPMI-1640 medium supplemented with 10% fetal calf serum. Cells adhering to the petri dish, obtained by washing with the same culture medium, were separately co-cultured with FM-3A cells as the target tumor cells, in a ratio of 10:1. FM-3A cells were cultured singly, or with macrophages derived from normal mice, as the control. In each run, the growth of FM-3A cells was monitored. A determination of the number of FM-3A cells was carried out per the dye exclusion test using Trypan-Blue. […] Thus, it is apparent that Ge induces the formation of A-M: in live mice.

[6] = system: vesicular stomatitis virus (VSV) in human embryonic lung cells; format: cell-based; details: human serum, 75 mg/kg oral
MEP-II tumor cells = test: Anti-tumor effect of oral Ge in MEP-II tumor bearing mice; format: in vivo, DDI mice; details: 100 and 300 mg/kg oral, once daily, seven days
Experimental: 4×10^3 MEP-II tumor cells were transplanted intraperitoneally in DDI mice as described above. Twenty-four hours later, Ge was orally administered, once daily for seven consecutive days at a daily dosage of 100 or 300 mg/kg to ascertain any anti-tumor effect. In a control group, 0.2 ml of physiological saline solution was orally administered, also once daily for seven days.

interferon = test: Interferon induction in healthy volunteers; format: in vivo; details: human
Experimental: Capsules of Ge were orally administered to eight healthy volunteers, 21 to 23 years old. The dose administered to one group (two men and two women) was 75 mg/kg and that administrated to the other group (two men and two women) was 25 mg/kg. Serum samples were collected at predetermined intervals, the interferon titers were determined, and the results reflected in FIGS. 4 and 5 were obtained. […] The reported results thus evidence that Ge induces A-M.phi. in humans as well as in mice.

[7] = background statement on known inducers; cited from earlier work
[8] = intravenous injection, larger than any physically practicable maximum amount

For “double-stranded complex polyriboinosinic acid and polyribocytidylic acid [Poly 1-C, reference compound]”, the “Interferon Titer” value ([1]; pH 2) was 640 and the “Remaining amount of titer” value ([1]; pH 2) was 100%.

For `O=C(O)C[CH2][Ge](=[O])[O][Ge](=[O])[CH2]CC(=O)O` [carboxyethyl germanium sesquioxide], the “death in chronic toxicity test” value (rats) was “no rat died”, the “pathological disorder in chronic toxicity test” value (rats) was “no pathological disorder was observed” and the toxicity (dogs) was “no toxicity was found”. The LD50 [2, 8] was > 1000 mg/kg, the LD50 ([2]; oral) was > 10000 mg/kg and the LD50 [3, 8] was > 1000 mg/kg. The LD50 ([3]; oral) was > 6300 mg/kg.

For `O=C(O)C[CH2][Ge](=[O])[O][Ge](=[O])[CH2]CC(=O)O` [Ge], the “stability of induced factor to heat and acid (in words)” value ([1]; mouse serum, 56° C. one hour, acidification to pH 2.0) was “unstable to thermal treatment at 56 °C for one hour and also to acidification to pH 2.0”, the “trypsin lability of induced factor (in words)” value ([1]; mouse serum, trypsin 37° C., 3 hours) was “trypsin labile” and the “type of interferon induced” value ([1]; mouse serum, from thermal and acid treatments) was “immune (type II) interferon”. For the same compound, the “anti-tumor activity of macrophage activated by Ge treatment (in words)” value [4] was “marked anti-tumor activity”, the “viral infection inhibitory activity in serum” value ([5]; mice, 300 mg/kg oral, 25 hours after administration (FIG. 1)) was “viral infection inhibitory activity was detected” and the “dose dependency of viral infection inhibitory activity” value ([5]; mice, oral, varied doses (FIG. 2)) was “dose dependent”. For the same compound, the “species specificity of induced viral infection inhibitory factor” value ([5]; mouse and human sera compared on L-1D, human embryonic lung and chicken embryonic cells) was “species specific”, the “antiviral activity of induced agent, L-1D cells (in words)” value ([5]; mouse serum, 300 mg/kg oral) was “displayed resistance to viral infection only in the L-1D cells” and the “growth of FM-3A cells (in words)” value (FM-3A cells) was “prominently inhibited”. The “antiviral activity of induced agent, human cells (in words)” value [6] was “displayed antiviral activity only in human cells”, the “anti-tumor activity (in words)” value (MEP-II tumor cells) was “both dosage amounts of Ge exhibited anti-tumor activity” and the production of interferon (interferon; 25 mg/kg oral capsules (FIGS. 4 and 5)) was “production of interferon was observed, although the level was lower”. The production of interferon (interferon; 75 mg/kg oral capsules (FIGS. 4 and 5)) was “significant production of interferon was observed in each case”.

For `CCN(CC)CCOc1ccc2c(c1)C(=O)c1cc(OCCN(CC)CC)ccc1-2` [tilorone hydrochloride], the adverse side effects [7] is given as “one or more adverse side effects”.

For `CCCCCCCCCCCCCCCCCCN(CCCCCCCCCCCCCCCCCC)CCCN(CCO)CCO` [CP-20961], the adverse side effects [7] is given as “one or more adverse side effects”.
